Laboratory results reported in PMC5065788 (Bioorganic & medicinal chemistry, 2016).
Read-outs that look alike come from different tables or passages of the source.

Columns and labels:
[1] = target: T1, recombinant human aromatase (CYP19) (Homo sapiens, UniProt P11511); test: Inhibition of recombinant human aromatase; format: biochemical; details: ratio of IC50 values vs 13 (24880 nM)
T1 sequence (P11511 1-503): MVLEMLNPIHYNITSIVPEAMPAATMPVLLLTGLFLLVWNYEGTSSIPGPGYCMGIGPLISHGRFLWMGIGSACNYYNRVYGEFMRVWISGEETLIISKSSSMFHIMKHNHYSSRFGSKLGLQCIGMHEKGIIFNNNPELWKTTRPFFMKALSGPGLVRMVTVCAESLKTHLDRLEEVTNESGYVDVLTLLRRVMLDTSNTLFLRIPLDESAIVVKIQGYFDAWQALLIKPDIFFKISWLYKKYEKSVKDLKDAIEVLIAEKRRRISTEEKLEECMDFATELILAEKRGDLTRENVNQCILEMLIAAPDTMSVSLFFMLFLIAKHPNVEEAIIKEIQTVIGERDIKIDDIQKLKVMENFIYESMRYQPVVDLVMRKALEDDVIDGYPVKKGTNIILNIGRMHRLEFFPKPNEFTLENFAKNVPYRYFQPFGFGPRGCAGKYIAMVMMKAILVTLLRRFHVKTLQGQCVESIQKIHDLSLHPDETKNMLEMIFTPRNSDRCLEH

[2] = target: T2, recombinant human ER-α (Homo sapiens, UniProt P03372); details: at 100 μM; previously reported compounds included for comparison; cited from earlier work
T2 sequence (P03372 1-595): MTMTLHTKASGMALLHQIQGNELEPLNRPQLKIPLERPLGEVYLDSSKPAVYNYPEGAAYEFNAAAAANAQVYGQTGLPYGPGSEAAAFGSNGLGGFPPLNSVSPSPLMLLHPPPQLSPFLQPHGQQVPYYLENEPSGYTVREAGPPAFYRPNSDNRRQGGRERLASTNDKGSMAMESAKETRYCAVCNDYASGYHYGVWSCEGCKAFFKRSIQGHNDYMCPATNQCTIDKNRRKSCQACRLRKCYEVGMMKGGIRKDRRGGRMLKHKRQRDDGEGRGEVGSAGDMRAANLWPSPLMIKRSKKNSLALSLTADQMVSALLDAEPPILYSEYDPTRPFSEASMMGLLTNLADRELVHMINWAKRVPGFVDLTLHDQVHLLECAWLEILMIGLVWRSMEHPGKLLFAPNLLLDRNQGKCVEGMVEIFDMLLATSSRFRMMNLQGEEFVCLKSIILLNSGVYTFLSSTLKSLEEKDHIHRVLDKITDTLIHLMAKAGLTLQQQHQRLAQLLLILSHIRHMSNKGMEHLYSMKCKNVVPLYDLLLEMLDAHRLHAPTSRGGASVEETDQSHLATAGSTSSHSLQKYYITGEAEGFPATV

[3] = target: T2, recombinant human ER-α; test: Binding affinity for recombinant human ER-α; details: at 100 μM (100000 nM)
[4] = target: T3, recombinant human ER-β (Homo sapiens, UniProt Q92731); test: Binding affinity for recombinant human ER-β; details: at 100 μM (100000 nM)
T3 sequence (Q92731 whole entry): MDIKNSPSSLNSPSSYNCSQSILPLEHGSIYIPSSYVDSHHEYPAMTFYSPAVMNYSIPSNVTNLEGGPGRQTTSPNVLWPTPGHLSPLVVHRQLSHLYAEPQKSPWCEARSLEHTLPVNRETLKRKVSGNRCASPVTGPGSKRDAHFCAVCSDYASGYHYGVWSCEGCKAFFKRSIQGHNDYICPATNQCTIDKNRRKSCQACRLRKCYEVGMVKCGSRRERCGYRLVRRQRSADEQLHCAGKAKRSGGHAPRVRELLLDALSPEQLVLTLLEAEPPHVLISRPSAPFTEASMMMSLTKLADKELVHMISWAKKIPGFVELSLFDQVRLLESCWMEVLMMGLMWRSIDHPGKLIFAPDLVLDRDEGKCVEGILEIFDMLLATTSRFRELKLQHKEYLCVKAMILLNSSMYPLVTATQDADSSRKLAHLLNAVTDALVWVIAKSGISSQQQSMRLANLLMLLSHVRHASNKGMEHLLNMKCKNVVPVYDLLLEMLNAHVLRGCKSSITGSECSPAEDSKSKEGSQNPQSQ

[5] = test system: progesterone receptor (PGR) mRNA expression in MCF-7 cells; test: Antagonism of β-estradiol-stimulated progesterone receptor; format: cell-based, human; details: 1 μM compound in the presence of 10 nM β-estradiol, 24 hours
[6] = target: T3, recombinant human ER-β; details: at 100 μM; previously reported compounds included for comparison; cited from earlier work

In the case of CC(=C(c1ccc(N)cc1)c1ccc(N)cc1)c1ccc([N+](=O)[O-])cc1 [Compound 12c, 4-(1-(4-Aminophenyl)-2-(4-nitrophenyl)prop-1-enyl)benzenamine], the “times more potent than 13 against aromatase” value [1] is reported as 113 times.
For CCC(=C(c1ccc(N)cc1)c1ccc(N)cc1)c1ccc([N+](=O)[O-])cc1 [Compound 12d, 4-(1-(4-Aminophenyl)-2-(4-nitrophenyl)but-1-enyl)benzenamine], the “times more potent than 13 against aromatase” value [1] was 400 times.
For CCC(=C(c1ccc(O)cc1)c1ccc(O)cc1)c1ccccc1 [Compound 13, 4-(1-(4-Hydroxyphenyl)-2-phenylbut-1-enyl)phenol], the ER-α percent competition [2] is listed as 80% competition at 100 μM.
For CC(=C(c1ccc(O)cc1)c1ccc(OCC(N)=O)cc1)c1ccc([N+](=O)[O-])cc1 [Compound 16a, (E,Z)-2-(4-(1-(4-Hydroxyphenyl)-2-(4-nitrophenyl)prop-1-enyl)phenoxy)-acetamide], the ER-α percent competition [3] was 0% competition at 100 μM and the ER-β percent competition [4] was 0% competition at 100 μM.
CCC(=C(c1ccc(O)cc1)c1ccc(OCC(N)=O)cc1)c1ccc([N+](=O)[O-])cc1 [Compound 16b, (E,Z)-2-(4-(1-(4-Hydroxyphenyl)-2-(4-nitrophenyl)but-1-enyl)phenoxy)-acetamide] gave an ER-α percent competition [3] of 0% competition at 100 μM and an ER-β percent competition [4] of 0% competition at 100 μM.
In the case of CCC(=C(c1ccc(N)cc1)c1ccc(NCC(N)=O)cc1)c1ccc([N+](=O)[O-])cc1 [Compound 16d, (E,Z)-2-(4-(1-(4-Aminophenyl)-2-(4-nitrophenyl)but-1-enyl)phenylamino)acetamide], the “PGR mRNA expression level relative to estradiol (100%)” value [5] is reported as 19.6%.
For CC/C(=C(/c1ccc(O)cc1)c1ccc(OCC(N)=O)cc1)c1ccccc1 [Compound 17, (E,Z)-2-(4-(1-(4-Hydroxyphenyl)-2-phenylbut-1-enyl)phenoxy)-acetamide], the ER-β percent competition [6] is listed as 71% competition at 100 μM and the ER-α percent competition [2] is listed as 57% competition at 100 μM.
